According to US11498928B2, “Macrocyclic spiroethers as Mcl-1 inhibitors” (ASCENTAGE PHARMA (SUZHOU) CO., LTD., priority 2019, dated 2022):

What was measured:
OPM-2 cells = experiment: Cell viability assay (OPM-2 cells), CCK-8; assay type: cell-based; details: Homo sapiens, OPM-2, 24 h, 5% FBS
In short: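 Viability read by CCK-8 absorbance (450 nm, 4 h reagent incubation) after 24 h compound exposure of 20000 OPM-2 cells per well at 37 °C. IC50 fitted by nonlinear regression on vehicle-normalized signal.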

NCI-H929 cells = experiment: Cell viability assay (NCI-H929 cells), CCK-8; assay type: cell-based; details: Homo sapiens, NCI-H929, 24 h, 5% FBS
In short: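 Viability of NCI-H929 cells was measured using the Cell Counting Kit-8. After 24 hrs of compound exposure, 10 μL of CCK-8 solution per well was incubated for 1-4 hours, and absorbance was read at 450 nm on a BioTek Synergy 1MF. Readings were normalized to vehicle (DMSO) cells, and IC50 values were derived by nonlinear regression in GraphPad Prism 6.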

[1] = target: T1, Mcl-1 protein (residues 171-323) (Homo sapiens, UniProt Q07820); experiment: Inhibition of Mcl-1 by fluorescence polarization (FP) competitive binding assay with FAM-Bid tracer; details: 2 nM FAM-Bid, 20 nM Mcl-1, 30 min
T1 construct: Tag-free Mcl-1 protein (residues 171-323) was used in the FP assay
T1 sequence (Q07820 171-323): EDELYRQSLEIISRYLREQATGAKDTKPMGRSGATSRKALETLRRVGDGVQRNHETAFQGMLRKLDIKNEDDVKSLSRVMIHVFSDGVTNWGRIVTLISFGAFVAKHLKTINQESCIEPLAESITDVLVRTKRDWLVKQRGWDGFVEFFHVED
In short: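 Ten-point compound titrations compete against 2 nM fluorescein-Bid for 20 nM Mcl-1 (171-323, untagged). Incubation 30 min RT in PBS buffer with BGG and Triton, 5% DMSO final. mP reduction fitted by sigmoidal nonlinear regression for IC50.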

Row | IC50 (NCI-H929 cells) [nM] | IC50 [1] [nM] | Compound | IC50 (OPM-2 cells) [nM]
1 | 70 | 14 | CCOC(=O)CO[C@H]1C2=C[C@@H](C2)[C@H](C)[C@@H](C)S(=O)(=O)NC(=O)c2ccc3c(c2)N(C[C@@H]2CC[C@H]21)C[C@@]1(CCCc2c1ccc(Cl)c2F)CO3 [compound 72, ethyl 2-(((1S,11′R,12′S,13′R,16′R,16a′R,18a′R,E)-6-chloro-5-fluoro-11′,12′-dimethyl-10′,10′-dioxido-8′-oxo-3,4,8′,9′,12′,13′,16′,16a′,17′,18′,18a′,19′-dodecahydro-1′H,2H,3′H,11′H-spiro[naphthalene-1,2′-[5,7]etheno[13,15]methanocyclobuta[i][1,4]oxazepino[3,4-f][1]thia[2,7]diazacyclohexadecin]-16′-yl)oxy)acetate] | 89
2 | 150 | 19 | CC(C)OC(=O)CO[C@H]1C2=C[C@@H](C2)[C@H](C)[C@@H](C)S(=O)(=O)NC(=O)c2ccc3c(c2)N(C[C@@H]2CC[C@H]21)C[C@@]1(CCCc2c1ccc(Cl)c2F)CO3 [compound 73, isopropyl 2-(((1S,11′R,12′S,13′R,16′R,16a′R,18a′R,E)-6-chloro-5-fluoro-11′,12′-dimethyl-10′,10′-dioxido-8′-oxo-3,4,8′,9′,12′,13′,16′,16a′,17′,18′,18a′,19′-dodecahydro-1′H,2H,3′H,11′H-spiro[naphthalene-1,2′-[5,7]etheno[13,15]methanocyclobuta[i][1,4]oxazepino[3,4-f][1]thia[2,7]diazacyclohexadecin]-16′-yl)oxy)acetate] | 67
3 | 450 | 20 | C[C@@H]1[C@@H](C)S(=O)(=O)NC(=O)c2ccc3c(c2)N(C[C@@H]2CC[C@H]2[C@@H](OCC(=O)O)C2=C[C@H]1C2)C[C@@]1(CCCc2c1ccc(Cl)c2F)CO3 [compound 74, 2-(((1S,11′R,12′S,13′R,16′R,16a′R,18a′R,E)-6-chloro-5-fluoro-11′,12′-dimethyl-10′,10′-dioxido-8′-oxo-3,4,8′,9′,12′,13′,16′,16a′,17′,18′,18a′,19′-dodecahydro-1′H,2H,3′H,11′H-spiro[naphthalene-1,2′-[5,7]etheno[13,15]methanocyclobuta[i][1,4]oxazepino[3,4-f][1]thia[2,7]diazacyclohexadecin]-16′-yl)oxy)acetic acid] | 384
4 | 5.3 | 8.5 | C[C@@H]1[C@@H](C)S(=O)(=O)NC(=O)c2ccc3c(c2)N(C[C@@H]2CC[C@H]2[C@@H](OCCN(C)C)C2=C[C@H]1C2)C[C@@]1(CCCc2c1ccc(Cl)c2F)CO3 [compound 77, (1S,11′R,12′S,13′R,16′R,16a′R,18a′R,E)-6-chloro-16′-(2-(dimethylamino)ethoxy)-5-fluoro-11′,12′-dimethyl-3,4,12′,13′,16′,16a′,17′,18′,18a′,19′-decahydro-1′H,2H,3′H,1 PH-spiro[naphthalene-1,2′-[5,7]etheno[13,15]methanocyclobuta[i][1,4]oxazepino[3,4-f][1]thia[2,7]diazacyclohexadecin]-8′(9′H)-one 10′,10′-dioxide] | 68
5 | 66 | 16 | CNCCO[C@H]1C2=C[C@@H](C2)[C@H](C)[C@@H](C)S(=O)(=O)NC(=O)c2ccc3c(c2)N(C[C@@H]2CC[C@H]21)C[C@@]1(CCCc2c1ccc(Cl)c2F)CO3 [compound 78, (1S,11′R,12′S,13′R,16′R,16a′R,18a′R,E)-6-chloro-5-fluoro-11′,12′-dimethyl-16′-(2-(methylamino)ethoxy)-3,4,12′,13′,16′,16a′,17′,18′,18a′,19′-decahydro-1′H,2H,3′H, 11′H-spiro[naphthalene-1,2′-[5,7]etheno[13,15]methanocyclobuta[i][1,4]oxazepino[3,4-f][1]thia[2,7]diazacyclohexadecin]-8′(9′H)-one 10′,10′-dioxide] | 184
6 | 62 | 13 | CC(=O)N(C)CCO[C@H]1C2=C[C@@H](C2)[C@H](C)[C@@H](C)S(=O)(=O)NC(=O)c2ccc3c(c2)N(C[C@@H]2CC[C@H]21)C[C@@]1(CCCc2c1ccc(Cl)c2F)CO3 [compound 80, N-(2-(((1S,11′R,12′S,13′R,16′R,16a′R,18a′R,E)-6-chloro-5-fluoro-11′,12′-dimethyl-10′,10′-dioxido-8′-oxo-3,4,8′,9′,12′,13′,16′,16a′,17′,18′,18a′,19′-dodecahydro-1′H,2H,3′H, 11′H-spiro[naphthalene-1,2′-[5,7]etheno[13,15]methanocyclobuta[i][1,4]oxazepino[3,4-f][1]thia[2,7]diazacyclohexadecin]-16′-yl)oxy)ethyl)-N-methylacetamide] | 158

The next lines start with the compound.

Row | Compound | IC50 (NCI-H929 cells) [nM] | IC50 [1] [nM] | IC50 (OPM-2 cells) [nM]
7 | C[C@@H]1[C@@H](C)S(=O)(=O)NC(=O)c2ccc3c(c2)N(C[C@@H]2CC[C@H]2[C@@H](OCC(=O)N2CCN(C)CC2)C2=C[C@H]1C2)C[C@@]1(CCCc2c1ccc(Cl)c2F)CO3 [compound 70, (1S,11′R,12′S,13′R,16′R,16a′R,18a′R,E)-6-chloro-5-fluoro-11′,12′-dimethyl-16′-(2-(4-methylpiperazin-1-yl)-2-oxoethoxy)-3,4,12′,13′,16′,16a′,17′,18′,18a′,19′-decahydro-1′H,2H,3′H, 11′H-spiro[naphthalene-1,2′-[5,7]etheno[13,15]methanocyclobuta[i][1,4]oxazepino[3,4-f][1]thia[2,7]diazacyclohexadecin]-8′(9′H)-one 10′,10′-dioxide] | 81 | 14 | 35
8 | C[C@@H]1[C@@H](C)S(=O)(=O)NC(=O)c2ccc3c(c2)N(C[C@@H]2CC[C@H]2[C@@H](OCC2CCN(C)CC2)C2=C[C@H]1C2)C[C@@]1(CCCc2c1ccc(Cl)c2F)CO3 [compound 71] | 6 | 13 | 81
9 | COC1CCN(CCO[C@H]2C3=C[C@@H](C3)[C@H](C)[C@@H](C)S(=O)(=O)NC(=O)c3ccc4c(c3)N(C[C@@H]3CC[C@H]32)C[C@@]2(CCCc3c2ccc(Cl)c3F)CO4)CC1 [compound 75, (1S,11′R,12′S,13′R,16′R,16a′R,18a′R,E)-6-chloro-5-fluoro-16′-(2-(4-methoxypiperidin-1-yl)ethoxy)-11′,12′-dimethyl-3,4,12′,13′,16′,16a′,17′,18′,18a′,19′-decahydro-1′H,2H,3′H,11′H-spiro[naphthalene-1,2′-[5,7]etheno[13,15]methanocyclobuta[i][1,4]oxazepino[3,4-f][1]thia[2,7]diazacyclohexadecin]-8′(9′H)-one 10′,10′-dioxide] | 51 | 36 | 41
10 | C[C@@H]1[C@@H](C)S(=O)(=O)NC(=O)c2ccc3c(c2)N(C[C@@H]2CC[C@H]2[C@@H](OCCN2CCN(S(C)(=O)=O)CC2)C2=C[C@H]1C2)C[C@@]1(CCCc2c1ccc(Cl)c2F)CO3 [compound 76, (1S,11′R,12′5,13′R,16′R,16a′R,18a′R,E)-6-chloro-5-fluoro-11′,12′-dimethyl-16′-(2-(4-(methylsulfonyl)piperazin-1-yl)ethoxy)-3,4,12′,13′,16′,16a′,17′,18′,18a′,19′-decahydro-1′H,2H,3′H,11′H-spiro[naphthalene-1,2′-[5,7]etheno[13,15]methanocyclobuta[i][1,4]oxazepino[3,4-f][1]thia[2,7]diazacyclohexadecin]-8′(9′H)-one 10′,10′-dioxide] | 37 | 21 | 206
11 | C[C@@H]1[C@@H](C)S(=O)(=O)NC(=O)c2ccc3c(c2)N(C[C@@H]2CC[C@H]2[C@@H](OCCN(C)S(C)(=O)=O)C2=C[C@H]1C2)C[C@@]1(CCCc2c1ccc(Cl)c2F)CO3 [compound 79, N-(2-(((1S,11′R,12′S,13′R,16′R,16a′R,18a′R,E)-6-chloro-5-fluoro-11′,12′-dimethyl-10′,10′-dioxido-8′-oxo-3,4,8′,9′,12′,13′,16′,16a′,17′,18′,18a′,19′-dodecahydro-1′H,2H,3′H, 11′H-spiro[naphthalene-1,2′-[5,7]etheno[13,15]methanocyclobuta[i][1,4]oxazepino[3,4-f][1]thia[2,7]diazacyclohexadecin]-16′-yl)oxy)ethyl)-N-methylmethanesulfonamide] | 58 | 15 | 53
12 | C[C@@H]1[C@@H](C)S(=O)(=O)NC(=O)c2ccc3c(c2)N(C[C@@H]2CC[C@H]2[C@@H](OCCN2CC4(CN(C)C4)C2)C2=C[C@H]1C2)C[C@@]1(CCCc2c1ccc(Cl)c2F)CO3 [compound 81, (1S,11′R,12′S,13′R,16′R,16a′R,18a′R,E)-6-chloro-5-fluoro-11′,12′-dimethyl-16′-(2-(6-methyl-2,6-diazaspiro[3.3]heptan-2-yl)ethoxy)-3,4,12′,13′,16′,16a′,17′,18′,18a′,19′-decahydro-1′H,2H,3′H, 11′H-spiro[naphthalene-1,2′-[5,7]etheno[13,15]methanocyclobuta[i][1,4]oxazepino[3,4-f][1]thia[2,7]diazacyclohexadecin]-8′(9′H)-one 10′,10′-dioxide] | 360 | 17 | 667
